Measured values published in ChEMBL document CHEMBL1148468, “Design and synthesis of novel cyanoguanidine ATP-sensitive potassium channel openers for the treatment of overactive bladder” (Bioorg Med Chem Lett, 2004).

Legend:
[1] = molecular target: Sulfonylurea receptor 2, Kir6.2 (Homo sapiens, UniProt O60706+Q14654); assay: (§1) In vitro ATP-sensitive potassium channel (KATP) activity in cells expressing human KATP channels Kir6.2 and sulfonylurea receptor 2B; type: functional
[2] = molecular target: Sulfonylurea receptors; K-ATP channels (Sus scrofa); assay: In vitro functional potassium channel opening activity in tissue strips obtained from Landrace pig bladders(LPD)
[3] = molecular target: Sulfonylurea receptor 2, Kir6.2 (Homo sapiens) (UniProt Q14654+O60706); assay: as §1; type: functional; conditions: filed as antagonist

Sequence of Sulfonylurea receptor 2, Kir6.2 (Q14654 whole entry): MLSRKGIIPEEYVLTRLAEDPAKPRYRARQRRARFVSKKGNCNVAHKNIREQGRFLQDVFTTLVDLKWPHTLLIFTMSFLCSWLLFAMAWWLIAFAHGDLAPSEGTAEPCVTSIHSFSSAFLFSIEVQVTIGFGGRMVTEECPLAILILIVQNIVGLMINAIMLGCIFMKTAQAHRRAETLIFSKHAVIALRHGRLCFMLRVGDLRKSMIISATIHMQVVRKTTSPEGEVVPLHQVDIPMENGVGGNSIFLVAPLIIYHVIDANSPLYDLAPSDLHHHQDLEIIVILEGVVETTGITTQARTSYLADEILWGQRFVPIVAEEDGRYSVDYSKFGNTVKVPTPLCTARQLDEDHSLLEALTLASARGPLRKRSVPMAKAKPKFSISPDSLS
Sequence of Sulfonylurea receptor 2, Kir6.2 (O60706 whole entry): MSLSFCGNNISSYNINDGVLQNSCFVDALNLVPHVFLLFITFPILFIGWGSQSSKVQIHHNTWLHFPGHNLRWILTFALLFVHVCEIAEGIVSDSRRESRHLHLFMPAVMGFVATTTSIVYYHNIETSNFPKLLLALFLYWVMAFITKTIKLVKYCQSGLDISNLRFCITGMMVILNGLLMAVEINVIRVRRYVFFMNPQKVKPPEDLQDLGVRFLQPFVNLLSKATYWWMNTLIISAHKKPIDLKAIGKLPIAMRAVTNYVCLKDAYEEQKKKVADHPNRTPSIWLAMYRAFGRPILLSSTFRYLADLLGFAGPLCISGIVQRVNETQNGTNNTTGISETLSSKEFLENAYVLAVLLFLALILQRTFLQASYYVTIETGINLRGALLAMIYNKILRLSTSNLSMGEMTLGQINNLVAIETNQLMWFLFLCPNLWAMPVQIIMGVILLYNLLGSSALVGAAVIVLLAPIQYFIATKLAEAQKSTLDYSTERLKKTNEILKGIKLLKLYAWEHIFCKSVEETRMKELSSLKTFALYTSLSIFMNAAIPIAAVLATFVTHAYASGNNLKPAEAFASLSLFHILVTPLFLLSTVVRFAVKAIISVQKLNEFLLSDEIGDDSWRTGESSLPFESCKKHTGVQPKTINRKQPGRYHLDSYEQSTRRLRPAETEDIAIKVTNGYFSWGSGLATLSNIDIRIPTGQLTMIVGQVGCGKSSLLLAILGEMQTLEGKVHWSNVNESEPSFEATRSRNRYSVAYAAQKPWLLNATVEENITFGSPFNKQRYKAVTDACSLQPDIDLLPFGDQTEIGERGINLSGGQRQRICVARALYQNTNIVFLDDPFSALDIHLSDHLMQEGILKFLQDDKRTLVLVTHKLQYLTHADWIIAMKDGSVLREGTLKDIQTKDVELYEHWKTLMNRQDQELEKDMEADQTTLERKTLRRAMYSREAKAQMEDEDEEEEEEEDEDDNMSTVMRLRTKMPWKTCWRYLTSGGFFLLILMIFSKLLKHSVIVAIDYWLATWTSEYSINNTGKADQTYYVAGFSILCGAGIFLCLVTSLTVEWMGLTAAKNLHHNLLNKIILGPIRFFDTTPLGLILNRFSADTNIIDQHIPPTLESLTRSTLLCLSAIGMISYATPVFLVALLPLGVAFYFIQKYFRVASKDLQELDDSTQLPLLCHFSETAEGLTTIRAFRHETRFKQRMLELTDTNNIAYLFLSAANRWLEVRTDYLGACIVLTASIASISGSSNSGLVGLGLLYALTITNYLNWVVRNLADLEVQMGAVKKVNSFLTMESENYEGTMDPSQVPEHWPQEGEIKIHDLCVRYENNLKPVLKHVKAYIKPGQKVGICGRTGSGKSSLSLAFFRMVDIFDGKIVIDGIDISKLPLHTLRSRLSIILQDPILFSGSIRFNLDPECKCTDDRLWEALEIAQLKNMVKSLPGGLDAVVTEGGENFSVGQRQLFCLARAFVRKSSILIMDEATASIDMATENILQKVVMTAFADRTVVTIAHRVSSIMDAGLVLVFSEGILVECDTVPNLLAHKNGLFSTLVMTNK

EC50 [1] [µM]	EC50 [2] [µM]	Log EC50 [3]	SMILES
3.98			CC(Cl)(Cl)C(NC(=O)c1cccc(F)c1)N/C(=N/c1cccnc1)NC#N (stereo not drawn)
3.16	1.58		CC(Cl)(Cl)C(NC(=O)c1cccc(Cl)c1)N/C(=N/c1cccnc1)NC#N (stereo not drawn)
6.31	20		CC(C)(C)C(NC(=O)c1ccc(Cl)cc1)N/C(=N/c1cccnc1)NC#N (stereo not drawn)
2.51			Cc1ccc(C(=O)NC(/N=C(\NC#N)Nc2cccnc2)C(C)(Cl)Cl)cc1 (stereo not drawn)
10			CC(Cl)(Cl)C(NC(=O)c1ccc(Br)cc1)N/C(=N/c1cccnc1)NC#N (stereo not drawn)
10	20		CC(Cl)(Cl)[C@H](NC(=O)c1ccc(Cl)cc1)N/C(=N/c1cccnc1)NC#N
20			C=CCC(C)(C)C(NC(=O)c1ccc(Cl)cc1)NC(=NC#N)Nc1cccnc1 (stereo not drawn)
5.01	5.01		CCC(CC)(CCC#N)C(NC(=O)c1ccc(Cl)cc1)NC(=NC#N)Nc1cccnc1 (stereo not drawn)
0.316	5.01		CC(Cl)(Cl)[C@@H](NC(=O)c1ccc(Cl)cc1)N/C(=N/C#N)Nc1cccnc1
		Antagonist	CC(C)(C)C(NC(=O)c1ccc(Cl)cc1)NC(Nc1cccnc1)=C(C#N)C#N (stereo not drawn)
1	2		N#CN/C(=N\C(NC(=O)c1ccc(Cl)cc1)C(Cl)(Cl)Cl)Nc1cccnc1 (stereo not drawn)
2	2.51		CC(Cl)(Cl)C(NC(=O)c1ccc(Cl)cc1)NC(=NC#N)Nc1cccnc1 (stereo not drawn)
> 100			CN(C)S(=O)(=O)N/C(=N\C(NC(=O)c1ccc(Cl)cc1)C(C)(C)C)Nc1cccnc1 (stereo not drawn)
> 100			CC(C)(C)C(NC(=O)c1ccc(Cl)cc1)N/C(=N/c1cccnc1)NS(N)(=O)=O (stereo not drawn)
2.51	7.94		CC(C)(C)C(NC(=O)c1ccc(Cl)cc1)N/C(S)=N/c1cccnc1 (stereo not drawn)
5.01			Cc1cccc(C(=O)NC(/N=C(\NC#N)Nc2cccnc2)C(C)(Cl)Cl)c1 (stereo not drawn)
10			C=CC(C)(C)CC(NC(=O)c1ccc(Cl)cc1)N/C(=N/c1cccnc1)NC#N (stereo not drawn)
3.98	5.01		CC(Cl)(Cl)C(NC(=O)c1cc(F)cc(F)c1)N/C(=N/c1cccnc1)NC#N (stereo not drawn)
> 100			CCCCC(C)(C)C(NC(=O)c1ccc(Cl)cc1)N/C(=N/c1cccnc1)NC#N (stereo not drawn)
> 100			CC(C)(C)C(NC(=O)c1ccc(Cl)cc1)N/C(=C/[N+](=O)[O-])Nc1cccnc1 (stereo not drawn)
0.794	2		O=C(NC(NC(=S)Nc1cccnc1)C(Cl)(Cl)Cl)c1ccc(Cl)cc1 (stereo not drawn)

SMILES	EC50 [1] [µM]	EC50 [2] [µM]	Log EC50 [3]
CC(C)(C)C(NC(=O)c1ccc(Cl)cc1)N/C(=N/c1cccnc1)N[N+](=O)[O-] (stereo not drawn)	31.6	7.94	
